According to article PMC8145641 (Cells, 2021):
≈ marks a conversion by molar mass, not a printed value. Where two headings read alike, the source gives them in different places.

Experiments:
[1] = system: tachyzoites of the RH-GFP strain; assay: Influence of compounds during Toxoplasma growth, Assay A (invasion); type: cell-based, Toxoplasma gondii
Protocol: (§1) Influence of Compounds during Toxoplasma Growth (Assay A and B): Hs27 cells were cultured on Lab-Tek™ 4-well Chamber Slides (Nunc, Thermo Fisher Scientific, Waltham, MA, USA) (5 × 10^4 cells/500 μL per well).
Assay A—after 48 h, the medium was removed and then 5 × 10^5/500 µL/well tachyzoites of the RH-GFP strain were added to the cell monolayers, in parasite culture medium with the selected compounds at IC50 concentration: 2b, 5b, 8b, 11b or 12b, for 3 h. Then, the cells were washed to remove extracellular parasites and parasite culture medium (without any compounds) was added for 24 h.
(§2) In both assays as the controls, Hs27 cells were infected, but not treated. After subsequent 24 h of incubation (Assay A and B), the slides were washed with sterile PBS, fixed with formaldehyde solution (252549, Sigma-Aldrich), 3.7% in PBS for 20 min and stained with DAPI for 10 min (1 mg/mL, ThermoFisher Scientific). Microscopic analysis of 100 cells in turn, comprised of counting the infected cell ratio and tachyzoites per each parasitophorous vacuoles of infected cell, was performed using a fluorescent microscope (Axio Scope.A1, Carl Zeiss, Jena, Germany) at a magnification ×1000. For image processing ZEISS ZEN Microscope Software version 3.1 was used. Three independent experiments on triplicate chamber slides using the same conditions for both assays were performed.

[2] = system: Hs27 (human foreskin fibroblast); assay: Cytotoxicity assay (MTT); type: cell-based; settings: 24 h treatment
[3] = system: T. gondii RH-GFP; assay: Kinetics of T. gondii growth, Assay 2 (pre-incubated extracellular tachyzoites); type: cell-based, Toxoplasma gondii; settings: 24 h after infection
Protocol: (§3) Kinetics of T. gondii growth: The effect of 12b and drugs on kinetics of T. gondii RH-GFP growth was performed as follows: 1 × 10^4 per well of Hs27 cells were seeded on black, 96-well, tissue culture-treated plates with optical bottoms in DMEM cell culture medium.
Assay 2—After 72 h of incubation, the medium was removed and DMEM without phenol red with 3% HIFBS, was added. In the new 96-well, tissue culture-treated plates 2 × 10^5 per well of tachyzoites of the RH strain were added and treated for 3, and 6 h with the compound 12b and drugs (diluted in the DMEM without phenol red medium) at 37 °C. Then tachyzoites were wash out three times in DPBS, resuspended in DMEM without phenol red medium with 3% HIFBS, and finally 1 × 10^5 per well of tachyzoites were added to the Hs27 cells.
The plates were read with covered lids, and both excitation (475 nm) and emission (509 nm) from the bottom using multimode microplate reader SpectraMax® i3. Additionally, fluorescence measurement was performed every 24 h. The plates were incubated at 37 °C with 5% of CO2. The results were expressed as mean fluorescent intensity (MFI). The initial value for 1 × 10^5 of T. gondii RH-GFP was 37,000 MFI (log 4.57). The lower limit of detection was 1000 MFI (log 3.0). Data presented as a logarithm of mean fluorescence intensity (logMFI) on concentration and time dependent curves. […]

[4] = system: tachyzoites of the RH-GFP strain; assay: Influence of compounds during Toxoplasma growth, Assay B (intracellular proliferation); type: cell-based, Toxoplasma gondii; settings: 3 h infection without compound, washed, 24 h with compound at IC50
Protocol: as §1
Assay B—after 48 h, the medium was removed and then 5 × 10^5/500 µL/well tachyzoites of the RH-GFP strain were added to the cell monolayers, in parasite culture medium for 3 h.
as §2

[5] = system: T. gondii RH-GFP; assay: microbe, parasite or virus in culture; type: cell-based, Toxoplasma gondii
Protocol: Cell and parasite culture: The Hs27 (human foreskin fibroblast) (ATCC® CRL-1634™) (ATCC, Manassas, VA, USA) were culturing in DMEM (Dulbecco’s modified Eagle’s medium-ATCC® 30-2002™, ATCC) supplemented with 10% fetal bovine serum (fetal bovine serum, ATCC® 30-2020™, ATCC), 100 I.U./mL penicillin and 100 μg/mL streptomycin (penicillin-streptomycin solution ATCC® 30-2300™, ATCC). Cells were trypsinized (Trypsin-EDTA Solution ATCC® 30-2101™, ATCC) twice a week and seeded at a density of 1 × 10^6 per T25 cell culture flask and incubated in a 37 °C and 5% CO2 to achieve a confluent monolayer. The RH strain of Toxoplasma gondii (RH-GFP ATCC® 50940™, ATCC, highly virulent, haplogroup first, expression of green fluorescent protein) was maintained as tachyzoites, in parasite culture medium, which contains DMEM medium with 3% HIFBS (heat-inactivated FBS; 1 h in 56 °C). Infected tissue culture cells were incubated in a 37 °C and 5% CO2.
After 72 h of incubation, the medium was removed and then 1 × 10^5 per well of tachyzoites of the RH strain were added to the cell monolayers, in DMEM without phenol red with 3% HIFBS. One hour later, the compounds and drugs dilutions in the DMEM without phenol red medium were added to the Hs27 cells with T. gondii. Concentration of the compounds below cytotoxic concentration (<CC30), sulfadiazine 0–10,000 μM and trimethoprim, pyrimethamine and atovaquone 0–200 μM. After a subsequent 96 h of incubation, the plates were read with covered lids, and both excitation (475 nm) and emission (509 nm) from the bottom using multimode microplate reader SpectraMax® i3. The results were expressed as mean fluorescent intensity (MFI) and transformed to the percentage of viability compared to untreated cells. Finally, the inhibitory concentrations for 50% inhibition of T. gondii proliferation (IC50) were calculated. All experiments were performed in triplicate.
Graphs and statistical analyses: Statistical analyses and graphs were performed using GraphPad Prism version 9.0.0 for macOS (GraphPad Software, San Diego, CA, USA). […] Additionally, a relationship between cytotoxicity and antiparasitic activity were calculated as the ratio of the 30% cytotoxic concentration (CC30) to the 50% antiparasitic concentration (IC50) and presented as the selectivity index (SI).

[6] = system: T. gondii RH-GFP; assay: Kinetics of T. gondii growth, Assay 1 (intracellular tachyzoites); type: cell-based, Toxoplasma gondii; settings: for effect on the kinetics of T. gondii growth: Assay 1 and Assay 2, Figure 12
Protocol: as §3
Assay 1—After 72 h of incubation, the medium was removed and then 1 × 10^5 per well of tachyzoites of the RH strain were added to the cell monolayers, in DMEM without phenol red with 3% HIFBS. One hour later, the compound 12b and drugs dilutions in the DMEM without phenol red medium were added to the Hs27 cells with T. gondii.
The plates were read with covered lids, and both excitation (475 nm) and emission (509 nm) from the bottom using multimode microplate reader SpectraMax® i3. Additionally, fluorescence measurement was performed every 24 h. The plates were incubated at 37 °C with 5% of CO2. The results were expressed as mean fluorescent intensity (MFI). The initial value for 1 × 10^5 of T. gondii RH-GFP was 37,000 MFI (log 4.57). The lower limit of detection was 1000 MFI (log 3.0). Data presented as a logarithm of mean fluorescence intensity (logMFI) on concentration and time dependent curves. All experiments were performed in triplicate.

[7] = system: T. gondii; settings: values from the earlier paper; ref [25]; cited from earlier work
[8] = compared to non-treated host cells, compound at IC50 concentration, assay not named in abstract
[9] = compound at IC50 present 3 h during infection, washed, 24 h free medium, vs non-treated
[10] = ratio of CC30 (Hs27) to IC50 (T. gondii); 1b–12b and positive controls
[11] = Toxoplasma gondii, HS27, 96 h, read-out: IC50 (50% inhibition of T. gondii proliferation)

Cc1nc[nH]c1-c1nnc(Nc2ccc(I)cc2)s1 [12b]
reduction in number of tachyzoites per vacuole [1, 8]: 93% | reduction in the percentage of infected host cells [1, 8]: 44% | number of tachyzoites per vacuole (Assay A) [1, 9]: significant reductions | percentage of infected cells (Assay A) [1, 9]: significant reductions | CC30 (cytotoxic concentration causing 30% of cells proliferation inhibition) [2]: 98.18 µg/mL | reduction of the number of newly formed parasites in Hs27 host cells ([3]; 3 h pre-incubation of tachyzoites): 80% | reduction of the number of newly formed parasites in Hs27 host cells ([3]; 6 h pre-incubation of tachyzoites): 89% | number of intravacuolar tachyzoites (Assay B) [4]: significant reduction | percentage of infected cells (Assay B) [4]: still the same | size of parasitophorous vacuole (Assay B) [4]: significant reduction | IC50 ([5]; Toxoplasma gondii, HS27, 96 h; read-out: IC50 (50% inhibition of T. gondii proliferation)): 4.7 µg/mL (≈ 12.3 µM) | SI (selectivity index, CC30/IC50) [5, 10]: 20.89 | inhibition at 250 µM ([6]; Toxoplasma gondii, Assay 1, 250 µM (95.50 µg/mL), first 24 h post-infection, maintained for the next 72 h): 97%

Nc1ccc(S(=O)(=O)Nc2ncccn2)cc1 [Sulfadiazine (SUL), Sulfadiazine, reference compound]
CC30 (cytotoxic concentration causing 30% of cells proliferation inhibition) [2]: 2230.61 µg/mL | IC50 [5, 11]: 1250 µg/mL (≈ 5010 µM) | SI (selectivity index, CC30/IC50) [5, 10]: 1.78 | effect on the kinetics of T. gondii growth [6]: only moderately slow down the proliferation of tachyzoites | IC50 (50% inhibition of T. gondii proliferation) [7]: 2721.45 µg/mL

COc1cc(Cc2cnc(N)nc2N)cc(OC)c1OC [Trimethoprim (TRI), Trimethoprim, reference compound]
CC30 (cytotoxic concentration causing 30% of cells proliferation inhibition) [2]: 17.78 µg/mL | IC50 [5, 11]: 14.8 µg/mL (≈ 50.9 µM) | SI (selectivity index, CC30/IC50) [5, 10]: 1.20 | effect on the kinetics of T. gondii growth [6]: only moderately slow down the proliferation of tachyzoites | IC50 (50% inhibition of T. gondii proliferation) [7]: 12.13 µg/mL
